{
  "source": "patent US11014913B2",
  "about": "“Pyridazinones as PARP7 inhibitors” (Ribon Therapeutics Inc., priority 2018, dated 2021)",
  "key": {"PARP7 [1]": {"molecular_target": "T1, PARP7 (Homo sapiens (Human), UniProt Q7Z3E1)", "T1 sequence (Q7Z3E1 whole entry)": "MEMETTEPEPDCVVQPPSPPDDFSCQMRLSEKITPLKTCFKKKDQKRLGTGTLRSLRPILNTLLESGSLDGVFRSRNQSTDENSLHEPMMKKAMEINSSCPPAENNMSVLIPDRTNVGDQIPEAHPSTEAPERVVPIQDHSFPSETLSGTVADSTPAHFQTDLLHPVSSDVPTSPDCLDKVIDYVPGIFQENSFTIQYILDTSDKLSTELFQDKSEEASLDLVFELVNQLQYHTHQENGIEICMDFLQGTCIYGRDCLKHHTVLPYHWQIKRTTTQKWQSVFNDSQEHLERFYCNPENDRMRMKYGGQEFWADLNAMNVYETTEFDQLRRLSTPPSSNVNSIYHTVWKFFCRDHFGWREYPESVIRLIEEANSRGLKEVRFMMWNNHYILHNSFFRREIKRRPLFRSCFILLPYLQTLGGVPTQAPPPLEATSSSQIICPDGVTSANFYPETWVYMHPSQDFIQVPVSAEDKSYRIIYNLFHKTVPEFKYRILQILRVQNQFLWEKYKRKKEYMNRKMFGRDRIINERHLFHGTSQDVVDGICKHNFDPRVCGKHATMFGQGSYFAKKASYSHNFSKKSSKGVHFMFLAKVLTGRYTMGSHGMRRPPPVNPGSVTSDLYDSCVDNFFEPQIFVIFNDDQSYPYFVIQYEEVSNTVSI", "test": "Enzymatic assay for inhibition of PARP7 (TR-FRET displacement of Probe A from the TIPARP active site)", "format": "binding", "procedure": "20 nL of a dose response curve of each test compound was spotted in black 384-well polystyrene proxiplates (Perkin Elmer) using a Mosquito (TTP Labtech). […] Reactions were incubated at 25° C. for an additional 30 min, then read on an Envision platereader equipped with a LANCE/DELFIA top mirror (Perkin Elmer) using excitation of 320 nm and emission of 615 nm and […] with a 90 μs delay. The ratio of the 665/615 nm emission were calculated for each well to determine the amount of complex of TIPARP and Probe A in each well. […] The Hill Coefficient is normally allowed to float but may also be fixed at 1 in a 3-parameter fit. Y is the % inhibition and X is the compound concentration."}, "PARP7 [2]": {"molecular_target": "T1, PARP7", "test": "PARP7 inhibition potency (Table A-1)", "format": "biochemical", "conditions": "comparison of separated isomers; see Table A-1"}, "CT26 cells [3]": {"test_system": "CT26 cells", "test": "Tumor growth in murine syngeneic model CT26 (subcutaneous dosing)", "format": "in vivo", "conditions": "CT26, BALB/c mice", "from_the_text": "(§1) Example G: Inhibition of Tumor Growth by Treatment with PARP7 Inhibitors\nFor the CT26 study BALB/c mice were inoculated subcutaneously at the right flank with CT26 cells for tumor development. Four days after tumor inoculation, 36 mice with tumor size ranging from 40-55 mm^3 (average tumor size 47 mm^3) were selected and assigned into 3 groups using stratified randomization with 12 mice in each group based upon their tumor volumes. The treatments were started from the next day post randomization (defined randomization day as day 0) and were treated with vehicle (0.5% methylcellulose +0.2% Tween 80), Compound 98 (500 mg/kg S.C. QD*21 days), Compound 93A (100 mg/kg S.C. BID*21 days) respectively. The tumor sizes were measured three times per week during the treatment. The entire study was terminated on day 21.\n(§2) Mean tumor volume and SEM for both studies are plotted. Statistical significance, calculated using two-tailed unpaired t-tests in which each treatment group was compared to vehicle control, is indicated by an asterisk. Statistics were performed on groups with less than 20% animal loss (D21 for CT26, D17 for 4T1)."}, "4T1-luc2-1A4 cells": {"test_system": "4T1-luc2-1A4 cells", "test": "Tumor growth in murine syngeneic model 4T1 (orthotopic, mammary fat pad)", "format": "in vivo", "conditions": "4T1, BALB/c mice", "from_the_text": "as §1\nFor the 4T1 study female BALB/c mice were inoculated orthotopically in the mammary fat pad with 4T1-luc2-1A4 cells for tumor development. Eight days after tumor inoculation, 45 mice with tumor size ranging from 63-88 mm^3 (average tumor size 67 mm^3) were selected and assigned into 3 groups using stratified randomization with 15 mice in each group based upon their tumor volumes. The treatments were started from the next day post randomization (defined randomization day as D0) and were treated with vehicle (0.5% methylcellulose +0.2% Tween 80), Compound 98 (500 mg/kg S.C. QD*21 days), Compound 93A (100 mg/kg S.C. BID*21 days) respectively. The tumor sizes were measured three times per week during the treatment. The entire study was terminated on D20.\nas §2"}, "CT26 cells [4]": {"test_system": "CT26 cells", "test": "Tumor growth in murine CT26 colon cancer syngeneic model (oral dosing)", "format": "in vivo", "conditions": "CT26, BALB/c mice, BID 125-500 mg/kg or QD 500 mg/kg, 21 days", "from_the_text": "(§3) Example H: Inhibition of Tumor Growth by Oral Dosing with a PARP7 Inhibitor\n(§4) The effect of Compound 561 on tumor growth was studied in a human NCI-H1373 lung cancer xenograft and a murine CT26 colon cancer syngeneic model.\nFor the CT26 study, BALB/c mice were inoculated subcutaneously in the right flank with CT26 cells for tumor development. After 5 days of cell inoculation, mice with 36-79 mm^3 tumors were randomized into treatment groups with mean tumor volumes of 54 mm^3. The treatments were started from the next day post randomization (defined randomization day as day 0) and were treated with vehicle (25 or 50% Labrasol) or Compound 561 BID (2 times a day every 12 hours) at doses ranging from 125-500 mg/kg or QD (once a day) at 500 mg/kg for 21 days by oral gavage or needle subcutaneously. Tumor volumes were determined by manual calipers every 2-3 days. Mean tumor volume and SEM are plotted. BID: twice a day; PO: per oral administration; QD: once a day; SC: per subcutaneous administration. The first two doses for vehicle and Compound 561 500 mg/kg in the QD groups were delivered by subcutaneous injection. […] Statistical significance is calculated using two-way ANOVA followed by Bonferroni post-tests in which the treatment groups were compared to vehicle control (**** P<0.0001)."}, "NCI-H1373 cells": {"test_system": "NCI-H1373 cells", "test": "Tumor growth in human NCI-H1373 lung cancer xenograft (oral dosing)", "format": "in vivo, SCID mice", "conditions": "62.5 to 500 mg/kg once a day for 28 days", "from_the_text": "as §3, §4\nFor the NCI-H1373 study, SCID mice were inoculated subcutaneously in the right flank with NCI-H1373 cells for tumor development. After 5 days of tumor growth, mice with 89-148 mm^3 tumors were randomized into treatment groups with mean tumor volumes of 121 mm^3. The treatments were started from the next day post randomization (defined randomization day as day 0) and were treated with vehicle (50% Labrasol) or Compound 561 (62.5, 125, 250, and 500 mg/kg) once a day for 28 days by oral gavage. Tumor volumes were determined by manual calipers every 2-3 days. Mean tumor volume and SEM are plotted. QD: once a day; PO: per oral administration. Statistical significance is calculated using two-way ANOVA followed by Bonferroni post-tests in which the treatment groups were compared to vehicle control (**** P<0.0001)."}},
  "data": [
    {"molecule": "5-[(2R)-2-[3-[4-(5-chloropyrimidin-2-yl)piperazin-1-yl]-3-oxopropoxy]-3-methoxypropoxy]-4-(trifluoromethyl)-2,3-dihydropyridazin-3-one [Example 560 Isomer B]", "values": [
      {"measurement": "IC50", "setting": "PARP7 [1]", "result": "100 to 1000", "unit": "nM"}
    ]},
    {"molecule": "N#Cc1ccc(N2CCN(C(=O)c3cccc(OC[C@@H]4c5ccccc5CN4c4cn[nH]c(=O)c4C(F)(F)F)c3)CC2)nc1", "note": "(single isomer, unassigned) [Example 18 Isomer B]", "values": [
      {"measurement": "relative potency of the enantiomers", "setting": "PARP7 [2]", "result": "more potent enantiomer"}
    ]},
    {"molecule": "N#Cc1ccc(N2CCN(C(=O)CCOC[C@@H]3CCCN3c3cn[nH]c(=O)c3C(F)(F)F)CC2)nc1", "note": "[Example 98, 6-[4-(3-[[(2S)-1-[6-Oxo-5-(trifluoromethyl)-1,6-dihydropyridazin-4-yl]pyrrolidin-2-yl]methoxy]propanoyl)piperazin-1-yl]pyridine-3-carbonitrile]", "values": [
      {"measurement": "tumor growth", "setting": "CT26 cells [3]; 500 mg/kg S.C. QD*21 days", "result": "significantly reduce tumor growth"},
      {"measurement": "tumor growth", "setting": "4T1-luc2-1A4 cells; 500 mg/kg S.C. QD*21 days", "result": "significantly reduce tumor growth"}
    ]},
    {"molecule": "5-[[(2S)-1-[3-[4-(5-chloropyrimidin-2-yl)piperazin-1-yl]-3-oxopropoxy]-3-methoxypropan-2-yl]oxy]-4-(trifluoromethyl)-2,3-dihydropyridazin-3-one [Example 560 Isomer C]", "values": [
      {"measurement": "IC50", "setting": "PARP7 [1]", "result": "< 100", "unit": "nM"}
    ]},
    {"molecule": "N#Cc1ccc(N2CCN(C(=O)CCOC[C@@H]3c4ccccc4CN3c3cn[nH]c(=O)c3C(F)(F)F)CC2)nc1", "note": "[Example 93A, 6-[4-(3-[[(1S)-2-[6-oxo-5-(trifluoromethyl)-1,6-dihydropyridazin-4-yl]-2,3-dihydro-1H-isoindol-1-yl]methoxy]propanoyl)piperazin-1-yl]pyridine-3-carbonitrile]", "values": [
      {"measurement": "tumor growth", "setting": "CT26 cells [3]; 100 mg/kg S.C. BID*21 days", "result": "significantly reduce tumor growth"},
      {"measurement": "tumor growth", "setting": "4T1-luc2-1A4 cells; 100 mg/kg S.C. BID*21 days", "result": "significantly reduce tumor growth"}
    ]},
    {"molecule": "C[C@@H](COCCC(=O)N1CCN(c2ncc(C(F)(F)F)cn2)CC1)Nc1cn[nH]c(=O)c1C(F)(F)F", "note": "[Example 561, 5-[[(2S)-1-(3-oxo-3-[4-[5-(trifluoromethyl)pyrimidin-2-yl]piperazin-1-yl]propoxy)propan-2-yl]amino]-4-(trifluoromethyl)-2,3-dihydropyridazin-3-one]", "values": [
      {"measurement": "tumor growth", "setting": "CT26 cells [4]", "result": "significantly reduces tumor growth"},
      {"measurement": "tumor regression", "setting": "NCI-H1373 cells", "result": "complete tumor regression at all dose levels"}
    ]},
    {"molecule": "5-[[(2R)-1-[3-[4-(5-chloropyrimidin-2-yl)piperazin-1-yl]-3-oxopropoxy]-3-methoxypropan-2-yl]oxy]-4-(trifluoromethyl)-2,3-dihydropyridazin-3-one [Example 560 Isomer D]", "values": [
      {"measurement": "IC50", "setting": "PARP7 [1]", "result": "100 to 1000", "unit": "nM"}
    ]},
    {"molecule": "N#Cc1ccc(N2CCN(C(=O)CNCC[C@@H]3c4ccccc4CN3c3cn[nH]c(=O)c3C(F)(F)F)CC2)nc1", "note": "[Example 144B, 6-[4-[2-([2-[(1R)-2-[6-oxo-5-(trifluoromethyl)-1,6-dihydropyridazin-4-yl]-2,3-dihydro-1H-isoindol-1-yl]ethyl]amino)acetyl]piperazin-1-yl]pyridine-3-carbonitrile]", "values": [
      {"measurement": "IC50", "setting": "PARP7 [1]", "result": "100 to 1000", "unit": "nM"}
    ]}
  ]
}
